Source: patent US20090088380A1, “GHRH ANALOGS AND THERAPEUTIC USES THEREOF” (priority 2007, published 2009)
Several values for one entry are separate records, joined by “and”; a condition that tells them apart may be missing. Equal entries are not always repeated. Non-standard residues stand in square brackets, D forms with d. Residues, ends and D or L forms follow the SMILES beside them.

Key:
Assay type in all cases: in vivo, human
protein turnover = test: Phase II, malnourished CKD subjects, 1 mg sc twice daily 28 days: 13C-leucine kinetics (protein turnover); settings: for Leucine oxidation: adjusted mean difference (analog-placebo): Day 28; for Leucine flux: mean (SD): normalised with body weight
Experimental: This was a randomized, double-blind, placebo-controlled, parallel-group, multi-centre study of the GHRH(1-29)NH2 synthetic analog in malnourished subjects with CKD. Twenty-six subjects were required to complete the study.
All study subjects were randomised in equal numbers to receive active GHRH(1-29)NH2 synthetic analog or an equivalent volume of placebo, by sc injection, twice daily for 28 days.
Vials of investigational product contained 1.4 mg of the GHRH(1-29)NH2 synthetic analog. This was reconstituted with 0.7 mL of water for injection and 0.5 mL of the resultant solution (1.0 mg of active substance) was administered, i.e. approximately 15 μg/kg. The diluent, water for injections, was obtained from commercial stock and labelled accordingly.
Leucine kinetics was measured on Day 0 and Day 29 by a primed-constant infusion technique during substrate and isotopic steady state. The priming dose consisted of 4.0 μmol/kg of L[1−^13C] leucine and 0.11 mg/kg of NaH^13CO3 and a sustaining infusion rate of L[1−^13C] leucine of 4.0 μmol/kg/h for 4 hours. The isotopes were purchased directly from Cambridge Isotope Laboratories.
A 1 mL sample of venous blood was taken before administration of the dose of isotope and at 180, 195, 210, 225 and 240 minutes after the start of infusion.
Breath samples were provided by blowing through a straw into Exetainer® tubes (evacuated 139 B blue tops). Breath samples were collected before the dose of isotope and at 180, 195, 210, 225 and 240 minutes after the start of infusion. Duplicate samples were collected. One sample was sent for analysis; the other was retained in case of loss or breakage. All retained samples were destroyed once the database was locked.

[1] = system: malnourished subjects with CKD; test: Phase II CKD: Subjective Global Assessment (SGA); settings: for SGA mild to moderately malnourished: (%) / SGA mild to moderately malnourished: n / SGA severely malnourished: (%) / SGA severely malnourished: n / SGA well nourished: (%) / SGA well nourished: n: ITT
Text: An SGA was an overall evaluation of a subject by an experienced clinician that correlated with the subjective and objective aspects of a medical history and physical examination. An SGA was completed at both the screening and baseline visits, on Day 28 and at the follow-up visit. Review of the medical history included an assessment of weight and weight change, dietary intake, gastrointestinal symptoms, disease state, and the subject's functional status. The SGA also included a physical examination for negative changes in body composition such as loss of subcutaneous fat or muscle wasting, and signs of oedema or ascites (nutrition-related). After evaluation, the subject was classified as well nourished (A), mild to moderately malnourished (B), or severely malnourished (C).

[2] = system: malnourished subjects with CKD; test: Phase II CKD: DEXA scan
Experimental: The DEXA scan was performed by an appropriately qualified person and in accordance with the agreed guidelines. Mean body composition values (fat free mass, fat mass and bone mineral content) were recorded for the total body and for defined regional areas (arms, legs, trunk), if possible.
Mean body composition values (total tissue, fat mass, lean tissue and bone mineral content) were recorded for the total body and defined regional areas (arms, legs, trunk) if possible. FFM was derived for total body and for regional areas.

[3] = ITT, Baseline, listed as GHRH(1-29)NH2 synthetic analog
[4] = ITT, listed as GHRH(1-29)NH2 synthetic analog
[5] = Baseline, listed as GHRH(1-29)NH2 synthetic analog

## CC[C@H](C)[C@H](NC(=O)[C@H](C)NC(=O)[C@H](CC(=O)O)NC(=O)[C@@H](C)NC(=O)[C@@H](N)Cc1ccc(O)cc1)C(=O)N[C@@H](Cc1ccccc1)C(=O)N[C@H](C(=O)N[C@@H](CC(N)=O)C(=O)N[C@@H](CO)C(=O)N[C@H](Cc1ccc(O)cc1)C(=O)N[C@@H](CCCNC(=N)N)C(=O)N[C@@H](CCCCN)C(=O)N[C@H](C(=O)N[C@@H](CC(C)C)C(=O)N[C@H](C)C(=O)N[C@@H](CCC(N)=O)C(=O)N[C@@H](CC(C)C)C(=O)N[C@@H](CO)C(=O)N[C@@H](C)C(=O)N[C@@H](CCCNC(=N)N)C(=O)N[C@@H](CCCCN)C(=O)N[C@@H](CCCCN)C(=O)N[C@@H](CC(C)C)C(=O)N[C@@H](CCC(N)=O)C(=O)N[C@@H](CC(=O)O)C(=O)N[C@H](C(=O)N[C@@H](CCSC)C(=O)N[C@@H](CO)C(=O)N[C@@H](CCCNC(=N)N)C(N)=O)[C@@H](C)CC)C(C)C)[C@@H](C)O [GHRH analog #5, [D-Ala^2, D-Tyr^10, D-Ala^15, Lys^22] hGHRH(1-29)-NH2] (H-Y[dA]DAIFTNS[dY]RKVL[dA]QLSARKKLQDIMSR-NH2)
Protein turnover; ITT
  Leucine flux: mean (SD) change from baseline to Day 28: 1.15 (30.09) μmol/kg · hr
  Leucine flux: median change from baseline to Day 28: -0.4 µmol/kg/h
  Leucine oxidation: mean (SD) change from baseline to Day 28: 2.38 (5.66) μmol/kg · hr
  Leucine oxidation: median change from baseline to Day 28: 2.3 µmol/kg/h
  Oxidation of flux: mean (SD) change from baseline to Day 28: 2.64 (6.26) %
  Oxidation of flux: median change from baseline to Day 28: 3.8%
  Protein breakdown: mean (SD) change from baseline to Day 28: 1.16 (30.11) μmol/kg · hr
  Protein breakdown: median change from baseline to Day 28: -0.4 µmol/kg/h
  Protein synthesis of flux: mean (SD) change from baseline to Day 28: −2.64 (6.26) %
  Protein synthesis of flux: median change from baseline to Day 28: −3.8%
  Protein synthesis: mean (SD) change from baseline to Day 28: −1.22 (30.75) μmol/kg · hr
  Protein synthesis: median change from baseline to Day 28: -4.6 µmol/kg/h
  Leucine oxidation: adjusted mean difference (analog-placebo): 1.1 μmol/kg · hr
Protein turnover; ITT, Baseline
  Leucine flux: median: 98.3 µmol/kg/h
  Leucine oxidation: mean (SD): 7.74 μmol/kg · hr and 7.74 (4.51) μmol/kg · hr
  Leucine oxidation: median: 5.8 µmol/kg/h
  Oxidation of flux: mean (SD): 7.61 (4.19) %
  Oxidation of flux: median: 6.9%
  Protein breakdown: mean (SD): 97.45 (21.53) μmol/kg · hr
  Protein breakdown: median: 94.2 µmol/kg/h
  Protein synthesis of flux: mean (SD): 92.39 (4.19) %
  Protein synthesis of flux: median: 93.1%
  Protein synthesis: mean (SD): 93.71 (20.38) μmol/kg · hr
  Protein synthesis: median: 88.9 µmol/kg/h
  Leucine flux: mean (SD): 101.46 (21.54) μmol/kg · hr
Protein turnover; [3]
  Leucine oxidation: mean (SD): 7.74 µmol/kg/h
  Protein breakdown: mean (SD): 97.45 µmol/kg/h
  Protein synthesis: mean (SD): 93.71 µmol/kg/h
  Leucine flux: mean (SD): 101.46 µmol/kg/h
Protein turnover; [4]
  Leucine flux: mean (SD) change from baseline to Day 28: 1.15 µmol/kg/h
  Leucine oxidation: mean (SD) change from baseline to Day 28: 2.38 µmol/kg/h
  Protein breakdown: mean (SD) change from baseline to Day 28: 1.16 µmol/kg/h
  Protein synthesis of flux: median change from baseline to Day 28: -3.8%
  Protein synthesis: mean (SD) change from baseline to Day 28: -1.22 µmol/kg/h
Protein turnover; ITT, vs placebo
  Leucine flux: adjusted mean difference: 7.5 µmol/kg/h
  Protein breakdown: adjusted mean difference: 7.5 µmol/kg/h
  Protein synthesis: adjusted mean difference: 6.9 µmol/kg/h
Protein turnover; ITT, vs placebo, ANCOVA assuming log-normal distribution
  Oxidation of flux: adjusted mean difference: 1.48%
Protein turnover; PP (Leucine Kinetic)
  Leucine oxidation: mean (SD) change from baseline to Day 28: 1.90 (6.24) μmol/kg · hr
  Leucine oxidation: median change from baseline to Day 28: 2.3 µmol/kg/h
  Leucine oxidation: adjusted mean difference (analog-placebo): 3.3 μmol/kg · hr
Protein turnover; PP (Leucine Kinetic), Baseline
  Leucine oxidation: mean (SD): 7.81 (5.42) μmol/kg · hr
  Leucine oxidation: median: 5.6 µmol/kg/h
[1]; Baseline
  SGA mild to moderately malnourished: (%): (69.2%)
  SGA mild to moderately malnourished: n: 9
  SGA severely malnourished: (%): (7.7%)
  SGA severely malnourished: n: 1
  SGA well nourished: (%): (23.1%)
  SGA well nourished: n: 3
[1]; [5]
  SGA severely malnourished: (%): 7.7%
  SGA well nourished: (%): 23.1%
[1]; Day 28
  SGA mild to moderately malnourished: (%): (16.7%)
  SGA mild to moderately malnourished: n: 2
  SGA severely malnourished: (%): (8.3%)
  SGA severely malnourished: n: 1
  SGA well nourished: (%): (75.0%)
  SGA well nourished: n: 9
[1]; Day 28, listed as GHRH(1-29)NH2 synthetic analog
  SGA well nourished: (%): 75.0%
[1]; after 28 days of therapy
  Mild to moderate malnourished patients (of 9) who became well nourished: 6
[2]; Day 28
  Mean fat mass (%) as % of the mean in placebo group: 83%
  Mean fat mass (kg) as % of the mean in placebo group: 84%
[2]; ITT, Baseline
  Arms - bone mineral content: mean (SD): 0.317 (0.109) kg
  Arms - fat mass: mean (SD): 2.22 (1.65) kg
  Legs - bone mineral content: mean (SD): 0.791 (0.273) kg
  Legs - fat mass: mean (SD): 5.26 (2.86) kg
  Total body - bone mineral content (%): mean (SD): 3.63 (0.68) %
  Total body - bone mineral content (kg): mean (SD): 2.236 (0.656) kg
  Total body - fat free mass (%): mean (SD): 72.11 (14.25) %
  Total body - fat free mass (kg): mean (SD): 43.83 (10.90) kg
  Total body - fat mass (%): mean (SD): 27.89 (14.25) %
  Total body - fat mass (kg): mean (SD): 17.10 (9.48) kg
  Trunk - bone mineral content: mean (SD): 0.699 (0.239) kg
  Trunk - fat mass: mean (SD): 8.52 (4.73) kg
[2]; [3]
  Trunk - bone mineral content: mean (SD): 0.699 kg
[2]; ITT, Day 28
  Arms - bone mineral content: mean (SD): 0.300 (0.106) kg
  Arms - fat mass: mean (SD): 2.01 (1.25) kg
  Legs - bone mineral content: mean (SD): 0.784 (0.281) kg
  Legs - fat mass: mean (SD): 5.31 (3.05) kg
  Total body - bone mineral content (%): mean (SD): 3.58 (0.69) %
  Total body - bone mineral content (kg): mean (SD): 2.225 (0.674) kg
  Total body - fat free mass (%): mean (SD): 73.16 (14.31) %
  Total body - fat free mass (kg): mean (SD): 44.85 (11.61) kg
  Total body - fat mass (%): mean (SD): 26.84 (14.31) %
  Total body - fat mass (kg): mean (SD): 16.51 (9.51) kg
  Trunk - bone mineral content: mean (SD): 0.718 (0.253) kg
  Trunk - fat mass: mean (SD): 8.17 (4.91) kg
[2]; ITT, Day 28, listed as GHRH(1-29)NH2 synthetic analog
  Trunk - bone mineral content: mean (SD): 0.718 kg
[2]; ITT, Day 28, vs placebo
  Total body - fat free mass (kg): ratio of means; higher than placebo: 2.94 kg
  Total body - fat mass (%): ratio of means: 0.83
  Total body - fat mass (kg): ratio of means: 0.84
[2]; ITT, Day 28, vs placebo, listed as GHRH(1-29)NH2 synthetic analog
  Total body - fat free mass (kg): ratio of means; higher than placebo: 2.9 kg
[2]; day 28
  Decrease from baseline in median FM: 0.4 kg
  FM lost on average in arms: 0.22 kg
  FM lost on average in trunk: 0.30 kg
  Increase from baseline in median FFM: 1.6 kg
  Mean FFM gained, arms: 0.15 kg
  Mean FFM gained, legs: 1.03 kg
  Mean FFM gained, total body: 1.83 kg
  Mean FFM gained, trunk: 0.59 kg
  Mean total FM lost: 0.51 kg
